Literature values in PubChem BioAssay AID1259409 (Chemical Carcinogenesis Research Information System (CCRIS), 2018).

System: rodent chemically induced tumor inhibition, incidence and multiplicity
Experiment: CCRIS tumor inhibitor studies

## CC/C(=C(\c1ccccc1)c1ccc(OCCN(C)C)cc1)c1ccccc1
Carcinogen: 1,2-DIMETHYLHYDRAZINE HYDROCHLORIDE, 306-37-6, Dose [Inhibitor]: 0, 0.5 UG/G/D IN DIET FOR 28 WK (STUDY DURATION: 28 WK), Route [Inhibitor]: ORAL, Species: RAT, Strain/Sex: SPRAGUE-DAWLEY/FEMALE, Target Tissue: Type of Lesion: COLON: TUMOR, Dose [Carcinogen]: 20 MG/KG BW 1/WK FOR 28 WK, Promoter: NONE USED
  tumour outcome (control, treated, inhibition, significance): 26/36 (72%), 17/33 (52%), 28%, p<0.001
Carcinogen: 3-METHYLCHOLANTHRENE, 56-49-5, Dose [Inhibitor]: 0, 50 UG/KG FOR DURATION OF STUDY (STUDY DURATION: LIFETIME), Route [Inhibitor]: SUBCUTANEOUS, Species: MOUSE, Strain/Sex: SWISS/FEMALE, Target Tissue: Type of Lesion: CERVIX: CARCINOMA, Dose [Carcinogen]: CARCINOGEN AND BEESWAX (1:3) IMPREGNATED THREAD INSERTED IN THE CANAL OF THE UTERINE CERVIX, Promoter: NONE USED
  tumour outcome (control, treated, inhibition, significance): 60%, 30%, 50%, p<0.01
Carcinogen: 3-METHYLCHOLANTHRENE, 56-49-5, Dose [Inhibitor]: 0, 50 UG/KG GIVEN TO OOPHERECTOMIZED MICE 3/WK FOR DURATION OF STUDY (STUDY DURATION: LIFETIME), Route [Inhibitor]: SUBCUTANEOUS, Species: MOUSE, Strain/Sex: SWISS/FEMALE, Target Tissue: Type of Lesion: CERVIX: CARCINOMA, Dose [Carcinogen]: CARCINOGEN AND BEESWAX (1:3) IMPREGNATED THREAD INSERTED IN THE CANAL OF THE UTERINE CERVIX, Promoter: NONE USED
  tumour outcome (control, treated, inhibition, significance): 62%, 27%, 56%, p<0.01
Carcinogen: 7,12-DIMETHYLBENZ[A]ANTHRACENE (57-97-6), Dose [Inhibitor]: 0.125 MG/KG DIET FOR 17 WKS (STUDY DURATION: 17 WKS), Route [Inhibitor]: DIET, Species: RAT, Strain/Sex: SPRAGUE-DAWLEY/FEMALE (20,18)/(20,18), Target Tissue: Type of Lesion: MAMMARY, Dose [Carcinogen]: 12.5 MG ONCE 1 WK AFTER START OF DIETS (STUDY DURATION: 17 WKS)
  tumour outcome (control, treated, inhibition, significance): 95%, 73%, 23%, p=0.015
Carcinogen: 7,12-DIMETHYLBENZ[A]ANTHRACENE (DMBA) (57-97-6), Dose [Inhibitor]: 50 MG/KG/D FOR 37 WK (STUDY DURATION: 37 WK), Route [Inhibitor]: ORAL GAVAGE, Species: MOUSE, Strain/Sex: SENCAR/FEMALE, Target Tissue: Type of Lesion: MAMMARY: CARCINOMA, Dose [Carcinogen]: 20 UG/D FOR 6 WKS (STUDY DURATION: 37 WKS), Promoter: MEDROXYPROGESTERONE ACETATE (71-58-9)
  tumour outcome (control, treated, inhibition, significance): 10/21 (48%); 0%, 100%, p=0.0004
Carcinogen: 7,12-DIMETHYLBENZ[A]ANTHRACENE (DMBA) [57-97-6], Dose [Inhibitor]: 50 MG/KG/D FOR 52 WK (STUDY DURATION: 52 WK), Route [Inhibitor]: ORAL GAVAGE, Species: MOUSE, Strain/Sex: SENCAR/FEMALE, Target Tissue: Type of Lesion: MAMMARY: CARCINOMA, Dose [Carcinogen]: 20 UG/D FOR 6 WKS, Promoter: MEDROXYPROGESTERONE ACETATE (71-58-9)
  tumour outcome (control, treated, inhibition, significance): 13/23 (57%); 0/20 (0%), 100%, p=0.00003
Carcinogen: 17 BETA-ESTRADIOL, 50-28-2, Dose [Inhibitor]: 25 MG PELLETS CONTAINING 90% TAMOXIFEN ADMINISTERED ONCE AT BEGINNING OF STUDY AND ONCE AT 3.5 MO, ADMINISTERED CONCURRE, Route [Inhibitor]: SUBCUTANEOUS IMPLANT, Species: HAMSTER, Strain/Sex: SYRIAN/MALE, Target Tissue: Type of Lesion: KIDNEY: RENAL CARCINOMA, Dose [Carcinogen]: 25 MG PELLETS CONTAINING 90% ESTRADIOL ONCE AT BEGINNING OF STUDY AND ONCE AT 3.5 MO, Promoter: NONE USED
  tumour outcome (control, treated, inhibition, significance): 3/3 (100%), 2/8 (25%), 75%, not calculated
Carcinogen: ETHYL METHANESULFONATE, 62-50-0, Dose [Inhibitor]: 0, 50 MG/KG 1/WK FOR 4 WK BEGINNING POST CARCINOGEN TREATMENT (STUDY DURATION: 30 WK), Route [Inhibitor]: SUBCUTANEOUS, Species: RAT, Strain/Sex: WISTAR/FEMALE, Target Tissue: Type of Lesion: MAMMARY GLAND: CARCINOMA, Dose [Carcinogen]: 0.01 MOLAR SOLUTION IN DRINKING WATER FOR 12 WK, Promoter: NONE USED
  tumour outcome (control, treated, inhibition, significance): 100%, 100%, 0%, not significant
Carcinogen: ETHYL METHANESULFONATE, 62-50-0, Dose [Inhibitor]: 0, 50 MG/KG 1/WK FOR 4 WK CONCOMITANTLY WITH CARCINOGEN TREATMENT (STUDY DURATION: 30 WK), Route [Inhibitor]: SUBCUTANEOUS, Species: RAT, Strain/Sex: WISTAR/FEMALE, Target Tissue: Type of Lesion: MAMMARY GLAND: CARCINOMA, Dose [Carcinogen]: 0.01 MOLAR SOLUTION IN DRINKING WATER FOR 12 WK, Promoter: NONE USED
  tumour outcome (control, treated, inhibition, significance): 100%, 50%, 50%, p<0.01
Carcinogen: ETHYLNITROSOUREA [759-73-9], Dose [Inhibitor]: 420 MG/K DIET FOR 60 WK (STUDY DURATION: 60 WK), Route [Inhibitor]: DIET, Species: MOUSE, Strain/Sex: B6C3F1/MALE (?,44)/(?,47), Target Tissue: Type of Lesion: LIVER: HEPATOCELLULAR CARCINOMA, Dose [Carcinogen]: 120 UG/KG ONCE
  tumour outcome (control, treated, inhibition, significance): 11/44 (25%), 2/47 (4%), 84%, p<0.001
Carcinogen: N-ETHYL-N'-NITRO-N-NITROSOGUANADINE, 4245-77-6, Dose [Inhibitor]: 0, 70 MG/KG BW IN CHOLESTEROL IMPLANTED 1 WK POST CARCINOGEN DOSE, IMPLANTS REPLACED AT 6 TO 8 WK INTERVALS FOR THE DURA, Route [Inhibitor]: SUBCUTANEOUS IMPLANT, Species: RAT, Strain/Sex: DONRYU/FEMALE, Target Tissue: Type of Lesion: UTERUS: ADENOCARCINOMA, Dose [Carcinogen]: 20 MG/KG BW ONCE, Promoter: NONE USED
  tumour outcome (control, treated, inhibition, significance): 9/29 (31%), 0/30 (0%), 100%, not calculated
Carcinogen: N-ETHYL-N'-NITRO-N-NITROSOGUANADINE, 4245-77-6, Dose [Inhibitor]: 0, 70 MG/KG BW IN CHOLESTEROL IMPLANTED 20 WKS POST CARCINOGEN DOSE, IMPLANTS REPLACED AT 6 TO 8 WK INTERVALS FOR DURATI, Route [Inhibitor]: SUBCUTANEOUS IMPLANT, Species: RAT, Strain/Sex: DONYRU/FEMALE, Target Tissue: Type of Lesion: UTERUS: ADENOCARCINOMA, Dose [Carcinogen]: 20 MG/KG BW ONCE, Promoter: NONE USED
  tumour outcome (control, treated, inhibition, significance): 9/29 (31%), 0/29 (0%), 100%, not calculated
Carcinogen: N-METHYL-N'-NITROSOUREA, 684-93-5, Dose [Inhibitor]: 0, 0.125 MG/KG IN DIET FOR DURATION OF STUDY BEGINNING 60 D PRIOR TO CARCINOGEN DOSE (STUDY DURATION: 240 D), Route [Inhibitor]: ORAL, Species: RAT, Strain/Sex: SPRAGUE-DAWLEY/FEMALE, Target Tissue: Type of Lesion: MAMMARY GLAND: TUMOR, Dose [Carcinogen]: 50 MG/KG BW ONCE, Promoter: NONE USED
  tumour outcome (control, treated, inhibition, significance): 68%, 62%, 9%, not significant
Carcinogen: N-METHYL-N'-NITROSOUREA, 684-93-5, Dose [Inhibitor]: 0, 0.25 MG/KG IN DIET FOR DURATION OF STUDY BEGINNING 60 D PRIOR TO CARCINOGEN DOSE (STUDY DURATION: 240 D), Route [Inhibitor]: ORAL, Species: RAT, Strain/Sex: SPRAGUE-DAWLEY/FEMALE, Target Tissue: Type of Lesion: MAMMARY GLAND: TUMOR, Dose [Carcinogen]: 50 MG/KG BW ONCE, Promoter: NONE USED
  tumour outcome (control, treated, inhibition, significance): 80%, 25%, 69%, p<0.005
Carcinogen: N-METHYL-N-NITROSOUREA, 684-93-5, Dose [Inhibitor]: 0, 0.2 MG/KG IN DIET FOR THE DURATION OF STUDY BEGINNING 7 D PRIOR TO CARCINOGEN DOSE (STUDY DURATION: 187 D), Route [Inhibitor]: ORAL, Species: RAT, Strain/Sex: SPRAGUE-DAWLEY/FEMALE, Target Tissue: Type of Lesion: MAMMARY GLAND: TUMOR, Dose [Carcinogen]: 50 MG/KG BW ONCE, Promoter: NONE USED
  tumour outcome (control, treated, inhibition, significance): 100%, 100%, 0%, not significant
